Here are results for one compound from US12558342B2, “2-[2-({12,12-dimethyl-4-oxo-6-phenyl-3,11-dioxatricyclo[8.4.0.0,2,7]tetradeca-1,5,7,9-tetraen-8-yl}oxy)acetamido]benzamide and derivatives as inhibitor of clock:bmal1 interaction for the treatment of circadian rhythm diseases and disorders” (KOC UNIVERSITESI, priority 2019, dated 2026).

One assay relates to CLOCK, BMAL1 and CRY1. Nature of the assay: In vivo study in mouse liver, Western blot. As to conditions: 25 mg/kg i.p., 6 h. As to the method:
Male C57BL/6J mice, 8 weeks of age, weighing 18-24 g were treated with two different single doses of CLK8 (25 mg/kg n=5 per each dose) intraperitoneally. Control mice (n=3) were only treated with vehicle (DMSO:Cremophor EL: 0.9% NaCl; 2.5:15:82.5, v/v, i.p.). Water and food were provided ad libitum throughout the experiments. Six hours after injection, mice were sacrificed by cervical dislocation. Liver tissues were removed, frozen in liquid nitrogen and stored at −80° C. until further processing.
(In general: A western blot detects proteins with antibodies after separation by electrophoresis.)

Assay [1] has as its system PER2, NPAS2, BMAL1 and CRY1. Nature of the assay: Cytosol-nuclear fractionation of U2OS cells, other clock proteins. The assay is classed as cell-based, human. Conditions: 20 μM, two days. As to the method:
U2 OS cells treated with 20 μM CLK8 and 0.5% DMSO were used for fractionation analysis. The 4×10^5 was suspended in 500 ul cytosolic lysis buffer (10 mM HEPES pH 7,9, 10 mM KCl, 0.1 mM EDTA, 0.05% NP40 with protease inhibitors) and incubated on ice for 10 minutes. The lysate was centrifuged for 3 minutes at 3000 rpm at 4° C. The resulting supernatant was centrifuged one more time and supernatant collected as cytosolic fraction. On the other hand, the resulting pellet from lysate centrifugation was suspended in nuclear lysis buffer (20 mM HEPES pH 7.9, 0.4 M NaCl, 1 mM EDTA, 10% glycerol with protease inhibitors) and sonicated 2 times 10 seconds with 60% power. After centrifuge at 15 000 g for 5 minutes at 4° C., supernatant was collected as nuclear fraction. Collected fractions were used for Western Blot analysis. Fractionation efficiency was checked with Western Blot by using tubulin (Sigma T9026) as cytosolic marker and Histone-H3 (abcam ab1791) as nuclear marker.

For a further assay, the target named is T1, CLOCK (Homo sapiens, UniProt O15516).
T1 sequence (O15516 1-846): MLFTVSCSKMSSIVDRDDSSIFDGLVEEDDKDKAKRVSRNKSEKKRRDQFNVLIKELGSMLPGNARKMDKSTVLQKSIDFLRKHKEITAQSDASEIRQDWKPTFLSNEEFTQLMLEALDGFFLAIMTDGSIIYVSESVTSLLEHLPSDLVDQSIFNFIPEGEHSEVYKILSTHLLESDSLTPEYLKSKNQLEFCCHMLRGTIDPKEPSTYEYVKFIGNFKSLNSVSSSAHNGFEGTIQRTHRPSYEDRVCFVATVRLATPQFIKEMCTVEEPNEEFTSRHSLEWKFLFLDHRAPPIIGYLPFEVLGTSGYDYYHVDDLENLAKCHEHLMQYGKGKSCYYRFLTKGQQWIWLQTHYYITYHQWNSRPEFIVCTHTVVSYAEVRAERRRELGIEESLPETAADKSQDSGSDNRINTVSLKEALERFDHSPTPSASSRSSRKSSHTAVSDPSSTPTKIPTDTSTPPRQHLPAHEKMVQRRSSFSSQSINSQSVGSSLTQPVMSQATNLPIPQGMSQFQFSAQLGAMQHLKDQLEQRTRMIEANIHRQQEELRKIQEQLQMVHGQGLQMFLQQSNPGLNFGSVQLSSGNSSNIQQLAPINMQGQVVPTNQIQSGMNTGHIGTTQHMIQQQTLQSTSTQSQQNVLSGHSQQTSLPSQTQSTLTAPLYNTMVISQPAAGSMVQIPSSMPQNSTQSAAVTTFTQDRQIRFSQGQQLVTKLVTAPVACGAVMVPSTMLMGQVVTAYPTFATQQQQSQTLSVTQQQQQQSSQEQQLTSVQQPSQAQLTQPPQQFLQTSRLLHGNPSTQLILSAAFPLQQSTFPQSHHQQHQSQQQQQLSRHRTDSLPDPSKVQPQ
Nature of the assay: Pull-down assay with biotinylated CLK8, U2OS lysate with endogenous CLOCK. The assay is classed as binding. The arrangement: expressed in transfected cells; host or cells: HEK293T.

With `CC1(C)CCc2c(cc(OCC(=O)Nc3ccccc3C(N)=O)c3c(-c4ccccc4)cc(=O)oc23)O1` [CLK8, 2-[2-({12,12-dimethyl-4-oxo-6-phenyl-3,11-dioxatricyclo [8.4.0.0,2,7]tetradeca-1,5,7,9-tetraen-8-yl}oxy)acetamido] benzamide], in the assay on CLOCK, BMAL1 and CRY1, the “CLOCK abundance in the nucleus (liver)” value is listed as “significantly low”; the “CLOCK levels in whole liver cell lysate” value was “decrease”; the “cytosolic and nuclear BMAL1 and CRY1 (liver)” value is reported as “unaltered”; the “levels of BMAL1 and CRY1 in whole liver cell lysate” value is “unaltered”. The “level of PER2, NPAS2, BMAL1 and CRY1” value in assay [1] is given as “comparable to the control samples”. For the same compound, the “affinity for CLOCK” value on CLOCK (endogenous CLOCK, input vs precipitated sample) is given as “high affinity for CLOCK”. Besides, the “other core clock components as target” value at CLOCK (except BMAL1, including NPAS2) is recorded as “none of the other core clock components were detected as a target”.
